The source of these data is patent US8486935B2, “Xinafoate salt of N4-(2,2-difluoro-4H-benzo[1,4]oxazin-3-one)-6-yl]-5-fluoro-N2-[3-(methylaminocarbonylmethyleneoxy)phenyl]2,4-pyrimidinediamine” (Rigel Pharmaceuticals, Inc., priority 2007, dated 2013).

Holding throughout (format): physicochemical
Series [1] is described as follows: Solvation/hydration by thermogravimetric analysis (TGA). The conditions noted are these: for hydration or solvation: TGA, ambient to 300° C. On the procedure:
Solvation/Hydration was assessed by thermogravimetric analysis (TGA) using a TA Instruments Hi-Res TGA 2950 instrument measuring the weight loss of a 8.8 mg sample in an open platinum pan. The sample was heated at 20° C./min from ambient to 300° C. utilizing a nitrogen furnace purge gas.

The nature of series [2]: Hygroscopicity by dynamic vapour sorption. On the procedure: Hygroscopicity was assessed using dynamic vapour sorption equipment (Surface Measurement Systems Ltd, model DVS-1). The analysis was conducted at 30° C. with a nitrogen gas flow of 200 cc/min. Water sorption and desorption were determined in the range 0 to 90% relative humidity (RH) using 15% RH intervals. Exposure was for a minimum of 2 hours at each humidity or until the rate of weight change was less than 0.0003%/minute (averaged over 10 minutes). Sample weight was 12.6 mg. The sample was weighed using a CAHN D-200, seven place digital recording balance, which is an integral part of the equipment.

Series [3] is described as follows: Solid form after micronisation using jet milling. Particulars: following micronisation using jet milling.
A short description of series [4]: Solid state stability and excipient compatibility of the lactose monohydrate blend. The conditions noted are these: for % main band remaining versus control: micronised, 1:100 blend with lactose monohydrate, control 5° C./0% humidity. On the procedure:
In order to test for solid state stability and excipient compatibility, a sample of the xinafoate salt was micronised by jet milling (particle size: D10=0.24 μm, D50=1.15 μm, D90=4.29 μm) and the resulting powder was blended at a 1:100 weight ratio with lactose monohydrate (Respitose grade SV008). Samples were stored for 12 weeks at 25° C./60% relative humidity and 40° C./75% relative humidity and assayed for remaining drug content and impurities at 4, 8 and 12 weeks. A control sample was stored at 5° C./0% humidity.

Where [5] appears, read: lactose blend, up to 12 weeks at 25° C./60% RH and 40° C./75% RH.

Molecules are shown by their SMILES. Where a name gives a salt, the structure may show the parent alone.

Take `CNC(=O)COc1cccc(Nc2ncc(F)c(Nc3ccc4c(c3)NC(=O)C(F)(F)O4)n2)c1` [free base, N4-[(2,2-difluoro-4H-benzo[1,4]oxazin-3-one)-6-yl]-5-fluoro-N2-[3-(methylaminocarbonylmethyleneoxy)phenyl]-2,4-pyrimidinediamine]: the hydration or solvation entry in series [1] was “hydrates to form a hemihydrate”. Moreover, the solvate formation result in series [1] (nine solvents tested) is recorded as “formed a different solvated form in each of nine solvents tested”.

Consider `CNC(=O)COc1cccc(Nc2ncc(F)c(Nc3ccc4c(c3)NC(=O)C(F)(F)O4)n2)c1` [xinafoate salt, xinafoate salt of N4-[(2,2-difluoro-4H-benzo[1,4]oxazin-3-one)-6-yl]-5-fluoro-N2-[3-(methylaminocarbonylmethyleneoxy)phenyl]-2,4-pyrimidinediamine], for which the hygroscopicity entry in series [2] (0 to 90% RH, 30° C.) is “essentially non-hygroscopic”. For the same compound, the water sorption in series [2] (90% RH, 30° C., before micronisation) amounted to 0.6%; in series [2] (90% relative humidity, following micronisation using jet milling), 0.9%. Also, in series [3], the “change in degree of crystallinity” value is reported as “negligible decrease in the degree of crystallinity”. Also, the “change in solid form” value in series [3] is “no change in solid form”. Moreover, the “% main band remaining versus control” value was 100.2% in series [4] (25° C./60% RH, 4 weeks); 99.9% in series [4] (25° C./60% RH, 8 weeks); 100.1% in series [4] (25° C./60% RH, 12 weeks); 100.4% in series [4] (40° C./75% RH, 4 weeks); 100.0% in series [4] (40° C./75% RH, 8 weeks); 100.0% in series [4] (40° C./75% RH, 12 weeks). The “change in physical form during storage” value in series [4] (setting [5]) is “no change in physical form was detected”. In series [4] (setting [5]), the degradation during storage result is recorded as “no significant degradation was observed”. The hydration or solvation result in series [1] is “does not show any hydration or salvation”.
